Measurements taken from patent US8735384B2, “Amino heteroaryl compounds as beta-secretase modulators and methods of use” (Amgen Inc., priority 2010, dated 2014).

What was measured:
BACE1 = BACE1 (Homo sapiens, UniProt P56817); test: In vitro enzymatic BACE FRET assay; type: biochemical; conditions: beta secretase enzyme 0.2 nM, FRET substrate 50 nM, pH 4.2; read-out: BACE1 FRET assay (IC50 class)
Procedure: In Vitro Enzymatic BACE FRET (Fluorescence Resonance Energy Transfer) Assay (Enzyme Assay Data in Table 1)
The assay buffer used in this screen is 0.05 M acetate, pH 4.2, 10% DMSO final, 100 uM genapol (which is a nonionic detergent, below its Critical Micelle Concentration). The beta secretase enzyme (0.2 nM) is pre-incubated for one hour with inhibitors, typically in about 1 uL of DMSO according to a serial dilution, are added thereto. The assay is effectively started by the addition of FRET substrate (50 nM) and the combination is incubated for one hour. The FRET assay is terminated with by addition of Tris buffer, which raises the pH to neutrality, and the fluorescence is determined. The FRET substrate is a peptide with commercially available fluorophore and quencher, on opposite sides of the BACE cleavage site. Proteolytic cleavage of the FRET substrate releases quenching of fluorescence (excitation […] and […]).
Of the compounds tested, the in-vitro BACE FRET enzyme data for each of Examples 1-220, where available at the time of filing this application, is provided in Table 1.

[1] = tested on: Aβ40 in conditioned medium of cells stably expressing Amyloid Precursor Protein (APP); test: In vitro BACE cell-based assay (HEK cell assay), Aβ40 sandwich ELISA; conditions: Homo sapiens, HEK293, 24 h, inhibition of Aβ40, 24 h incubation, read-out: HEK cell assay (IC50 class)
Procedure: In Vitro BACE Cell-Based Assay:
The cell-based assay measures inhibition or reduction of Aβ40 in conditioned medium of test compound treated cells expressing amyloid precursor protein.
Cells stably expressing Amyloid Precursor Protein (APP) were plated at a density of 40K cells/well in 96 well plates (Costar). The cells were cultivated for 24 hours at 37° C. and 5% CO2 in DMEM supplemented with 10% FBS. The test compounds were then added to cells in 10-point dose response concentrations with the starting concentration being either 100 μM or 10 μM. The compounds were diluted from stock solutions in DMSO and the final DMSO concentration of the test compounds on cells was 0.1%. After 24 h of incubation with the test compounds the supernatant conditioned media was collected and the Aβ 40 levels were determined using a sandwich ELISA. The IC50 of the compound was calculated from the percent of control or percent inhibition of Aβ 40 as a function of the concentration of the test compound.
The sandwich ELISA to detect Aβ 40 was performed in 96 well microtiter plates, which were pre-treated with goat anti-rabbit IgG (Pierce). The capture and detecting antibody pair that were used to detect Aβ 40 from cell supernatants were affinity purified pAb40 (Biosource) and biotinylated 6E10 (Signet Labs Inc.), respectively. The optimal concentration for the pAb40 antibody was 3 μg/ml in Superblock/TBS (Pierce) that was supplemented with 0.05% Tween 20 (Sigma). Optimal concentration for the detection antibody 6E10-biotinylated was 0.5 μg/ml in Superblock/TBS (Pierce) that had been supplemented with 2% normal goat serum and 2% normal mouse serum.
Cellular supernatants were incubated with the capture antibody for 3 h at 4° C., followed by 3 wash steps in TBS-tween (0.05%). The detecting antibody incubation was for 2 h at 4° C., again followed by the wash steps as described previously. The final readout of the ELISA is Time-Resolved Fluorescence (counts per minute) using Delfia reagents Streptavidin-Europium and Enhancement solutions (Perkin Elmer) and the Victor 2 multilabel counter (Perkin Elmer).

BACE1, sequence (P56817 46-501, species assumed): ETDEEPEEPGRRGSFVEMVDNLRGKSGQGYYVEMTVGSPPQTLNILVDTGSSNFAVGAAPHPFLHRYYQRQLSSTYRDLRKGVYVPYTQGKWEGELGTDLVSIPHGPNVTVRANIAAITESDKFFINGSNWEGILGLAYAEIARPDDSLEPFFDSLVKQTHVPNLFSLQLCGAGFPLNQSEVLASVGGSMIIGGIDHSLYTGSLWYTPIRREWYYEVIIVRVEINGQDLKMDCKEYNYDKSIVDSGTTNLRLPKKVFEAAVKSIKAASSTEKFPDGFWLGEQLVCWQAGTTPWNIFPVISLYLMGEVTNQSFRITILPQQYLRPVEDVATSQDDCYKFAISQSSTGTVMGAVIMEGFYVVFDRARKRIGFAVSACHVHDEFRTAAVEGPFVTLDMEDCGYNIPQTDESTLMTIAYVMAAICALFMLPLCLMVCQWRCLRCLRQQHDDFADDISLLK

Row | IC50 (BACE1) | IC50 [1] | SMILES
1 | 100 to 500 nM | 1010 to 5000 nM | Cc1cccc(C(=O)N2CC(C)CC(C)C2)c1-c1ccc2nc(N)c(N3CCOCC3)cc2c1 (stereo not shown) [Example 88, (2-(2-amino-3-morpholinoquinolin-6-yl)-3-methylphenyl)(3,5-dimethylpiperidin-1-yl)methanone]
2 | 100 to 500 nM | 100 to 500 nM | Cc1cccc(C(N)c2ncccc2Cl)c1-c1ccc2nc(N)c(N3CCOCC3)cc2c1 (stereo not shown) [Example 197, 6-(2-(amino(3-chloropyridin-2-yl)methyl)-6-methylphenyl)-3-morpholinoquinolin-2-amine]
3 | 100 to 500 nM | 1010 to 5000 nM | COCC1CCN(C(=O)c2cccc(C)c2-c2ccc3nc(N)c(N4CCOCC4)cc3c2)CC1 [Example 73, (2-(2-amino-3-morpholinoquinolin-6-yl)-3-methylphenyl)(4-(methoxymethyl)piperidin-1-yl)methanone]
4 | 100 to 500 nM | 501 to 1000 nM | Cc1cccc(-c2nnc3ccccn23)c1-c1ccc2nc(N)c(N3CCOCC3)cc2c1 [Example 22, 6-(2-([1,2,4]triazolo[4,3-a]pyridin-3-yl)-6-methylphenyl)-3-morpholinoquinolin-2-amine]
5 | 100 to 500 nM | 1010 to 5000 nM | Cc1cccc(C(=O)N2CCCC2)c1-c1ccc2nc(N)c(C3CCCO3)cc2c1 (stereo not shown) [Example 207, (2-(2-amino-3-(tetrahydrofuran-2-yl)quinolin-6-yl)-3-methylphenyl)(pyrrolidin-1-yl)methanone]
6 | 100 to 500 nM | 1010 to 5000 nM | Cc1cccc(C(=O)N(C)C)c1-c1ccc2nc(N)c(N3CCOCC3)cc2c1 [Example 134, 2-(2-amino-3-morpholinoquinolin-6-yl)-N,N,3-trimethylbenzamide]
7 | 100 to 500 nM | 100 to 500 nM | Cc1cccc(C(N)c2ccccn2)c1-c1ccc2nc(N)c(N3CCOCC3)cc2c1 (stereo not shown) [Example 196, 6-(2-(amino(pyridin-2-yl)methyl)-6-methylphenyl)-3-morpholinoquinolin-2-amine]
8 | < 100 nM | > 5000 nM | Cc1cccc(OCc2ccccc2)c1-c1ccc2nc(N)c(N3CCOCC3)cc2c1 [Example 169, 6-(2-(benzyloxy)-6-methylphenyl)-3-morpholinoquinolin-2-amine]
9 | < 100 nM | 1010 to 5000 nM | Cc1cccc(C(=O)N2C(C)CCCC2C)c1-c1ccc2nc(N)c(N3CCOCC3)cc2c1 (stereo not shown) [Example 124, (2-(2-amino-3-morpholinoquinolin-6-yl)-3-methylphenyl)(2,6-dimethylpiperidin-1-yl)methanone]
10 | < 100 nM | < 100 nM | Cc1ccccc1C(N)c1cccc(C)c1-c1ccc2nc(N)c(N3CCOCC3)cc2c1 (stereo not shown) [Example 193, 6-(2-(amino(o-tolyl)methyl)-6-methylphenyl)-3-morpholinoquinolin-2-amine]
11 | 100 to 500 nM | 1010 to 5000 nM | CCCC1CCCN1C(=O)c1cccc(C)c1-c1ccc2nc(N)c(N3CCOCC3)cc2c1 (stereo not shown) [Example 63, (2-(2-amino-3-morpholinoquinolin-6-yl)-3-methylphenyl)(2-propylpyrrolidin-1-yl)methanone]
12 | < 100 nM | 501 to 1000 nM | Cc1cccc(C(=O)N2C(C)C=CC2C)c1-c1ccc2nc(N)c(N3CCOCC3)cc2c1 (stereo not shown) [Example 125, (2-(2-amino-3-morpholinoquinolin-6-yl)-3-methylphenyl)(2,5-dimethyl-2,5-dihydro-1H-pyrrol-1-yl)methanone]
13 | 1010 to 5000 nM | > 5000 nM | Cc1cnc(-c2cccc(C)c2-c2ccc3nc(N)c(N4CCOCC4)cc3c2)o1 [Example 32, 6-(2-methyl-6-(5-methyloxazol-2-yl)phenyl)-3-morpholinoquinolin-2-amine]
14 | 501 to 1000 nM | 1010 to 5000 nM | CCCCN(CC)C(=O)c1cccc(C)c1-c1ccc2nc(N)c(N3CCOCC3)cc2c1 [Example 118, 2-(2-amino-3-morpholinoquinolin-6-yl)-N-butyl-N-ethyl-3-methylbenzamide]
15 | < 100 nM | 501 to 1000 nM | Cc1cccc(C(=O)N2CCCC2)c1-c1ccc2nc(N)c(N3CCOC(C)C3C)cc2c1 (stereo not shown) [Example 209, (2-(2-amino-3-(2,3-dimethylmorpholino)quinolin-6-yl)-3-methylphenyl)(pyrrolidin-1-yl)methanone]
16 | < 100 nM | 1010 to 5000 nM | Nc1nc2ccc(-c3ccccc3C(=O)CC3CCCC3)cc2cc1N1CCOCC1 [Example 156, 1-(2-(2-amino-3-morpholinoquinolin-6-yl)phenyl)-2-cyclopentylethanone]
17 | < 100 nM | 501 to 1000 nM | Cc1cccc(C(=O)N(C)C(C)(C)C)c1-c1ccc2nc(N)c(N3CCOCC3)cc2c1 [Example 123, 2-(2-amino-3-morpholinoquinolin-6-yl)-N-tert-butyl-N,3-dimethylbenzamide]
18 | 100 to 500 nM | 501 to 1000 nM | Cc1cccc(C(=O)N2CC(F)(F)C2)c1-c1ccc2nc(N)c(N3CCOCC3)cc2c1 [Example 99, (2-(2-amino-3-morpholinoquinolin-6-yl)-3-methylphenyl)(3,3-difluoroazetidin-1-yl)methanone]
19 | 100 to 500 nM | 501 to 1000 nM | Cc1cccc(C(=O)C2CCCO2)c1-c1ccc2nc(N)c(N3CCOCC3)cc2c1 (stereo not shown) [Example 5, (2-(2-amino-3-morpholinoquinolin-6-yl)-3-methylphenyl)(tetrahydrofuran-2-yl)methanone]
20 | < 100 nM | 1010 to 5000 nM | CCOCC1CCN(C(=O)c2cccc(C)c2-c2ccc3nc(N)c(N4CCOCC4)cc3c2)CC1 [Example 74, (2-(2-amino-3-morpholinoquinolin-6-yl)-3-methylphenyl)(4-(ethoxymethyl)piperidin-1-yl)methanone]
21 | < 100 nM | 1010 to 5000 nM | Cc1cccc(C(=O)N(C)[C@H](C)c2ccccc2)c1-c1ccc2nc(N)c(N3CCOCC3)cc2c1 [Example 133, (R)-2-(2-amino-3-morpholinoquinolin-6-yl)-N,3-dimethyl-N-(1-phenylethyl)benzamide]
22 | 501 to 1000 nM | > 5000 nM | Cc1ccccc1-c1ccc2nc(N)c(N3CCOCC3)cc2c1 [Example 218, 3-morpholino-6-o-tolylquinolin-2-amine]
23 | 501 to 1000 nM | 1010 to 5000 nM | Cc1cccc(OC2CCOC2)c1-c1ccc2nc(N)c(N3CCOCC3)cc2c1 (stereo not shown) [Example 54, 6-(2-methyl-6-(tetrahydrofuran-3-yloxy)phenyl)-3-morpholinoquinolin-2-amine]
24 | < 100 nM | < 100 nM | CC(C)(C)CCc1cccc(C(=O)N2CCOCC2)c1-c1ccc2nc(N)c(N3CCOCC3)cc2c1 [Example 163, (2-(2-amino-3-morpholinoquinolin-6-yl)-3-(3,3-dimethylbutyl)phenyl)(morpholino)methanone]
25 | 100 to 500 nM | 501 to 1000 nM | Cc1cccc(C2=NCCc3ccccc32)c1-c1ccc2nc(N)c(N3CCOCC3)cc2c1 [Example 4, 6-(2-(3,4-dihydroisoquinolin-1-yl)-6-methylphenyl)-3-morpholinoquinolin-2-amine]
26 | < 100 nM | 100 to 500 nM | CC(C)(C)C#Cc1cccc(C(=O)N2CCCC2)c1-c1ccc2nc(N)c(N3CCOCC3)cc2c1 [Example 44, (2-(2-amino-3-morpholinoquinolin-6-yl)-3-(3,3-dimethylbut-1-ynyl)phenyl)(pyrrolidin-1-yl)methanone]
27 | < 100 nM | 1010 to 5000 nM | CCOC1CCN(C(=O)c2cccc(C)c2-c2ccc3nc(N)c(N4CCOCC4)cc3c2)CC1 [Example 76, (2-(2-amino-3-morpholinoquinolin-6-yl)-3-methylphenyl)(4-ethoxypiperidin-1-yl)methanone]
28 | < 100 nM | 501 to 1000 nM | Nc1nc2ccc(-c3ccccc3C(=O)OC3CCCC3)cc2cc1N1CCOCC1 [Example 145, cyclopentyl 2-(2-amino-3-morpholinoquinolin-6-yl)benzoate]
29 | < 100 nM | 501 to 1000 nM | Cc1cccc(C(=O)c2ccccn2)c1-c1ccc2nc(N)c(N3CCOCC3)cc2c1 [Example 157, (2-(2-amino-3-morpholinoquinolin-6-yl)-3-methylphenyl)(pyridin-2-yl)methanone]
